Source: paper PMC10424183, “Determination of Ligand-Binding Affinity (Kd) Using Transverse Relaxation Rate (R2) in the Ligand-Observed ^1H NMR Experiment and Applications to Fragment-Based Drug Discovery” (Journal of Medicinal Chemistry, 2023)
Like-named read-outs stand apart in the source and are kept apart here.

Columns and labels:
BCL6 BTB [1] = target: T1, BCL6 BTB (Homo sapiens, UniProt P41182); test: R2KD ligand-observed 1H NMR assay (Kd from transverse relaxation rate R2); assay type: binding
T1 construct: made in house
Description: Four aqueous stock solutions were prepared in Eppendorf Safe-Lock tubes (Cat no. 0030120094) by manual pipetting: (1) ligand aqueous stock solution was prepared by adding 50 mM ligand DMSO-d6 solution to aqueous buffer; (2) dimethyl sulfoxide (DMSO) aqueous stock solution was prepared by adding the same volume of DMSO-d6 as ligand DMSO-d6 solution to aqueous buffer; (3) protein aqueous stock solution was prepared by adding protein solution to aqueous buffer; and (4) aqueous solution was the buffer used in the assay.
Samples were prepared on a Bruker SamplePro-Tube liquid handler by mixing different volume of the four aqueous stocks in 96-well microplates (Greiner 650201) and then transferred to 3 mm NMR tubes (Figure 2). 10 samples were prepared: samples 1–8 containing increasing ligand concentration (maintaining constant protein concentration); sample 9 and 10 containing only ligands at two different concentrations (protein absent). These two samples served as control samples to obtain the R2 values of free ligand. The final percentage of DMSO-d6 in all samples were identical to minimize possible impacts of DMSO-d6.
The R2 values of four aromatic ^1H-NMR signals (Figure 3B) were experimentally determined (Figure 3C) and (R2,obs – R2F) * LT values were calculated using Excel and used as y-axis values in Prism, while ligand concentrations were plotted as the x-axis values (Figure 3D). All four NMR peaks were used to fit a global Kd with non-linear regression using a customized equation (see Experimental Section), while α values were fitted as an individual parameter for each peak (Figure 3E) as α values differ depending on the individual proton’s environment. While it was possible to fit Kd values using individual NMR peaks and then average the values (Figure 3F), we found using a global fitting algorithm increased robustness of curve fitting and better accommodated outliers in the data. The goodness of fit was judged by 95% confidence interval (CI) (profile likelihood) values and R squared value. The global Kd obtained here is close to the Ki value (54 vs 50 μM) although from our accuracy study, the differences can be larger (see section “Assay Accuracy”).
NMR data were collected at 298 K on a Bruker AVANCE NEO 600 MHz spectrometer, equipped with 5 mm TCI CryoProbe using Bruker Topspin 4.0. The T2 relaxation experiment was acquired using pulse program CPMG with 3-9-19 pulse sequence with gradients incorporated to suppress the water signal.[22] Extra water suppression was achieved by adding presaturation during D1. The spin-echo period (delay-180°-delay) was set to 1 msec (d20 is 500 μs), and the relaxation delay (d1) was set to 10 s. The pseudo-2D experiment contained nine slices with spin-echo period repeated the following times: 4, 20, 100, 200, 300, 500, 700, 1000, and 2000. The T2 relaxation experiment was processed using MestReNova 14.1, and Data Analysis Module of MestReNova was used to obtain integrals of individual ^1H-NMR signals, which were used to calculate R2 with equation I = I0exp (−tR2).
Nonlinear regression analysis was carried out using GraphPad Prism 9.2.0. Equation 12 was defined in user-defined equations as: Y = 0.5α*((X + Kd + P) −sqrt((sqr(X + Kd + P)) – 4*P*X)) where Y was calculated from eq 13 and X is the total ligand concentration. Three parameters: P, α, and Kd were in the equation with the initial value set at 1. In the default constraints setting, P was “constant equal to” the total protein concentration, Kd was “shared value for all data sets”, and α was “must be greater than […]”. CIs of parameters was calculated at 95% level using Asymmetrical (Profile-likelihood) CI.

BCL6 BTB [2] = target: T1, BCL6 BTB; design: method as in PMID 36329085; settings: SPR; read-out: Kd value from SPR assay (printed in the Ki column, footnote a); cited from earlier work

Cc1cc(Nc2ccc(F)cc2)n2ncnc2n1 [CCT040036]
Kd (BCL6 BTB [1]; R2KD assay upper detection limit example, read-out: largest Kd determined accurately): ~1000 µM | Kd (BCL6 BTB [1]; R2KD assay, repeated three times (average), read-out: Kd): 1050 µM | Kd (BCL6 BTB [1]; single experiment, four peaks, global Kd fitting, unit inferred, read-out: Kd, global (shared) fit): 905 µM | Kd (BCL6 BTB [2]): 1500 µM
